pIC50: −log10 of the molar value.
What was measured:
[1] = Body weight change ratio in TMD8-transplanted SCID mice; assay type: in vivo; conditions: Day 17; 50 mg/kg orally once a day
Text: (§1) Human B cell lymphoma-derived cell line TMD8 was subcutaneously transplanted into SCID mice. At the time point when the volume of engrafted tumors reached 100 to 200 mm^3, the mice were divided into groups, with 5 animals in each group, by a random classification method (Day 1) such that the tumor volumes in the various groups would be uniform, and oral administration was initiated. […] In order to compare the antitumor effect caused by the drug administration, the relative tumor volume (RTV), which was the proliferation ratio of tumor when the tumor volume at the time of grouping was set as one, was determined by the following formula. RTV=(Tumor volume on the day of tumor volume measurement)/(tumor volume at the time of grouping)
The body weight change (BWC) was used as an index indicating the systemic toxicity caused by drug administration. BWC (%)=([(mice body weight on the day of weight measurement)−(mice body weight at the time of grouping)]/(mice body weight at the time of grouping))×100 (Mathematical Formula 1)

[2] = test system: Human B cell lymphoma-derived cell line TMD8; test: Antitumor effect, TMD8 subcutaneously transplanted into SCID mice; assay type: in vivo; conditions: Day 17; 50 mg/kg orally once a day
Text: as §1

[3] = Influence on body weight of SD rat by repeated administration (in vivo); conditions: 750 mg/kg orally once a day, two weeks; relative to vehicle-administered group
Experimental: The rats were grouped as follows, with four animals in each group, by a random classification method such that the average body weights of the each groups would be almost uniform (Day 1).
The body weight change (BWC) was used as an index indicating the systemic toxicity caused by drug administration. The BWC was calculated by the following formula. BWC (%)=([(Rat body weight on 14 days after the administration)−(rat body weight at the time of grouping)]/(rat body weight at the time of grouping))×100
The relative body weight change ratios in the each compound-administered groups were calculated by the following formula when the BWC in the vehicle-administered group was set as 1, and the results are indicated in Table 52. Relative body weight change ratio (%)=(BWC in the compound-administered group)/(BWC in the vehicle-administered group)×100

[4] = test system: purified recombinant human EGFR protein / BTK; test: BTK inhibition selectivity compared with EGFR kinase inhibitory activity (in vitro); assay type: biochemical; conditions: EGFR assay ATP 1.5 μM
[5] = target: purified recombinant human BTK protein (Homo sapiens (Human), UniProt Q06187); test: Measurement of BTK inhibitory activity (in vitro); assay type: biochemical; conditions: FL-PEPTIDE 2 substrate 1 μM, ATP 45 μM, 40 minutes at 25° C.
How it was run: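 Recombinant human BTK with FL-PEPTIDE 2 substrate (1 μM), 45 μM ATP and 10 mM MgCl2 in 20 mM HEPES pH 7.5, 2 mM DTT, 0.01% Triton X-100, 5% DMSO; 40 min at 25° C. Reaction stopped with 30 mM EDTA. Phosphorylated and unphosphorylated peptide separated and detected by microchannel capillary electrophoresis.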

[6] = test system: A431 cells / TMD8 cells; test: Proliferation inhibitory activity against cell lines expressing BTK and EGFR (in vitro), comparison of selectivity; assay type: cell-based, human; conditions: ratio from GI50 (nM), 3 days culture, CELLTITER GLO
How it was run: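 BTK-expressing TMD8 DLBCL cells (RPMI1640/10% FBS) and EGFR-overexpressing A431 epidermoid carcinoma cells (DMEM/10% FBS) cultured 1 day, then exposed to compound (0.2% DMSO final) for 3 days at 37° C. Luminescence read-out; inhibition ratio % = (C−T)/(C−C0)×100, with A431/TMD8 ratio as selectivity index.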

purified recombinant human BTK protein, sequence (Q06187 whole entry): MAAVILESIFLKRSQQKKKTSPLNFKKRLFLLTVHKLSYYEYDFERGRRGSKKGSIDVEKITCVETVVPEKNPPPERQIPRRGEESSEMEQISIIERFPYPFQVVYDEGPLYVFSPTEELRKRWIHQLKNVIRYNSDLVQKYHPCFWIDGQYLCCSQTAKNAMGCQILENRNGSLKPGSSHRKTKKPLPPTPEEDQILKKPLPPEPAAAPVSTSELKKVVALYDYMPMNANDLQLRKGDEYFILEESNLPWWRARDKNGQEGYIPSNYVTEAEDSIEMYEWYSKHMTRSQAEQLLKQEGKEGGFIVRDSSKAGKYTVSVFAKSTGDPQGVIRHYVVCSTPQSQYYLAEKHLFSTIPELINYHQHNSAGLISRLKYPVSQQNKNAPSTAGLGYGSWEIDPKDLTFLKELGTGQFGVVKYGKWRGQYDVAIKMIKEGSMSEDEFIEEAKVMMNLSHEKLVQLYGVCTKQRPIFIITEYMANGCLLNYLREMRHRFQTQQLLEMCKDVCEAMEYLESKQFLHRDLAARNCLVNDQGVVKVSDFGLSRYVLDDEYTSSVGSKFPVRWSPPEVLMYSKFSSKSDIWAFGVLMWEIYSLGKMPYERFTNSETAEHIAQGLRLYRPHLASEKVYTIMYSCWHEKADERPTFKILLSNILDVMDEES

| EGFR inhibitory activity IC50 value (nM)/BTK inhibitory activity IC50 value (nM) [4] | pIC50 [5] | Structure (SMILES) | BWC (body weight change) [1] | RTV (relative tumor volume) [2] | Relative body weight ratio (%) [3] | A431 cell proliferation inhibition ratio/TMD8 cell proliferation inhibitio ratio [6] |
| --- | --- | --- | --- | --- | --- | --- |
| 28.8 | 9.09 | C=CC(=O)N1CCC[C@@H](n2nc(C(=O)Nc3nc4ccccc4o3)c3c(N)ncnc32)C1 [Example 13, (R)-1-(1-acryloylpiperidin-3-yl)-4-amino-N-(benzo[d]oxazol-2-yl)-1H-pyrazolo[3,4-d]pyrimidine-3-carboxamide] | 3.8% | 4.24 | 79.1% | 4872.2 |
| 84.2 | 9.36 | C=CC(=O)N1CCC[C@@H](n2nc(C(=O)Nc3nc4cc(F)ccc4o3)c3c(N)ncnc32)C1 [Example 12, (R)-1-(1-acryloylpiperidin-3-yl)-4-amino-N-(5-fluorobenzo[d]oxazol-2-yl)-1H-pyrazolo[3,4-d]pyrimidine-3-carboxamide] | 6.0% | 0.13 | 91.2% | 3077.4 |

Source: patent publication US9580432B2, “Fused pyrimidine compound or salt thereof” (TAIHO PHARMACEUTICAL CO., LTD., priority 2013, dated 2017)
